Experimental data as given in patent US20180125993A1 (BEIJING COTIMES BIOTECH COMPANY LIMITED, priority 2014, published 2018).
Marks after values point to notes of the source that are not given here.

Assays:
[1] = molecular target: T1, DcR1-His (recombinant human TRAIL R3/TNFRSF10C) (Homo sapiens, UniProt O14798); test: Binding specificity by chemiluminescent enzyme immunoassay (CLEIA); conditions: antibody 200, 40 and 8 ng/mL; 1 hour, 37° C.
T1 construct: His; purchased Novoprotein Science
T1 sequence (O14798 26-236): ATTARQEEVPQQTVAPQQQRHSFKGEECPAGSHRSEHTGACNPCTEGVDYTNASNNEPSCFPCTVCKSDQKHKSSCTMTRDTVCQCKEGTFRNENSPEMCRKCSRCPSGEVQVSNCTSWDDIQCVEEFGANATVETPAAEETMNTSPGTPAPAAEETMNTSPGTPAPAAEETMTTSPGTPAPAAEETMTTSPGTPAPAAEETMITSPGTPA
Description: (§1) The binding specificity of HuCTB006 was evaluated by chemiluminescent enzyme immunoassay (CLEIA).
(§2) HuCTB006 was diluted into 200, 40 and 8 ng/mL and then added to the wells. After 1 hour incubation in 37° C., the plate was washed. The binding of HuCTB006 with immobilized antigens was detected with HRP labeled secondary antibody and a substrate solution.

[2] = molecular target: T2, DcR2-His (recombinant human TRAIL R4/TNFRSF10D) (Homo sapiens, UniProt Q9UBN6); test: as above; conditions: antibody 200, 40 and 8 ng/mL; 1 hour, 37° C.
T2 construct: His; purchased Sino Biological
T2 sequence (Q9UBN6 56-386): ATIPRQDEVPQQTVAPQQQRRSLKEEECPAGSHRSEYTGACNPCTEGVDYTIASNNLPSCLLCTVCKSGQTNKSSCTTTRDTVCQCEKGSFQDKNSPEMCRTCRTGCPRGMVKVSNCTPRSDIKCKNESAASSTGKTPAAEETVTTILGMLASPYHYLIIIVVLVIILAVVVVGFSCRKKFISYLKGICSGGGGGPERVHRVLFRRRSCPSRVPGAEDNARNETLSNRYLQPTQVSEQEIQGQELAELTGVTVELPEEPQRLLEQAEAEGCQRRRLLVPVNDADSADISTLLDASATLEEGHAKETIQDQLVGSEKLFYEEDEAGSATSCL
Description: as §1, §2

[3] = test system: 7402; test: In vitro cytotoxic sensitivity of CTB006; assay type: cell-based, human; conditions: 7402, Liver cancer
[4] = test system: SKOV3; test: In vitro cytotoxic sensitivity of CTB006; assay type: cell-based, human; conditions: SKOV3, Ovarian cancer
[5] = test system: HCC1954; test: In vitro cytotoxic sensitivity of CTB006; assay type: cell-based, human; conditions: HCC1954, Breast cancer
[6] = test system: MDA-MB-453; test: In vitro cytotoxic sensitivity of CTB006; assay type: cell-based, human; conditions: MDA-MB-453, Breast cancer
[7] = test system: ZR-75-30; test: In vitro cytotoxic sensitivity of CTB006; assay type: cell-based, human; conditions: ZR-75-30, Breast cancer
[8] = test system: 7901; test: In vitro cytotoxic sensitivity of CTB006; assay type: cell-based, human; conditions: 7901, Stomach cancer
[9] = test system: N87; test: In vitro cytotoxic sensitivity of CTB006; assay type: cell-based, human; conditions: N87, Stomach cancer
[10] = test system: Capan-1; test: In vitro cytotoxic sensitivity of CTB006; assay type: cell-based, human; conditions: Capan-1, Pancreatic cancer
[11] = test system: WiDr; test: Human colon cancer Widr subcutaneous model (Day 27 after treatment); assay type: in vivo, nude mice
Description: Tumor cells (i.e., MIA-PaCa-2, WiDr, H2122, colo205) were inoculated in nude mice's flank at 5×10^6 cells per mouse. The mice were grouped when the average volume of tumors reached about 100˜200 mm^3. “QW”=weekly dose. “Q3d”=dosed every third day. “BiW”=biweekly.
The bodyweight and major/minor axis of the mice were measured twice a week, and the tumor volumes were calculated using the formula: Tumor volume=1/2×major axis[…]. […] “T” represents average tumor volume of the experimental group (cm^3), and “C” represents average tumor volume of the control group (cm^3). The animals were monitored at all times. The bodyweight and major/minor axis or mice were measured twice a week.
Tumor volumes were represented with average±standard error. […] P<0.05 represents significant difference.

[12] = test system: MIA-PaCa-2; test: Human pancreatic cancer MIA-PaCa-2 subcutaneous model (34 days of treatment); conditions: for Tumor regression: treatment groups
Description: The bodyweight and major/minor axis of the mice were measured twice a week, and the tumor volumes were calculated using the formula: Tumor volume=1/2×major axis×minor axis. […] “T” represents average tumor volume of the experimental group (cm^3), and “C” represents average tumor volume of the control group (cm^3). The animals were monitored at all times. The bodyweight and major/minor axis or mice were measured twice a week. When the experiments were concluded, mice were sacrificed and tumors were extracted and weighted.
Tumor volumes were represented with average±standard error. Data analysis was done using Spss16.0, One-Way ANOVA, LSD (homogeneity of variance) or Dunnett T3 (non-homogeneity of variance). […] P<0.05 represents significant difference.

[13] = HuCTB006 0.07 mg/kg i.v. QW × 4W
[14] = HuCTB006 0.07 mg/kg i.v. QW × 4W, 0.07 mg/kg
[15] = HuCTB006 0.07 mg/kg i.v. QW × 4W, listed as HUCTB006, 0.07 mg/kg
[16] = HuCTB006 0.22 mg/kg i.v. QW × 4W
[17] = HuCTB006 0.22 mg/kg i.v. QW × 4W, 0.22 mg/kg
[18] = HuCTB006 0.22 mg/kg i.v. QW × 4W, listed as HUCTB006, 0.22 mg/kg
[19] = HuCTB006 0.67 mg/kg i.v. QW × 4W
[20] = HuCTB006 0.67 mg/kg i.v. QW × 4W, 0.67 mg/kg
[21] = HuCTB006 0.67 mg/kg i.v. QW × 4W, listed as HUCTB006, 0.67 mg/kg
[22] = HuCTB006 2 mg/kg i.v. QW × 4W, 2 mg/kg
[23] = HuCTB006 2 mg/kg i.v. QW × 4W, listed as HUCTB006, 2 mg/kg
[24] = repeated experiment, HuCTB006 0.07 mg/kg
[25] = repeated experiment, HuCTB006 0.22 mg/kg
[26] = repeated experiment, HuCTB006 0.67 mg/kg
[27] = repeated experiment, HuCTB006 2 mg/kg
[28] = HuCTB006 0.2 mg/kg i.v. QW × 6W
[29] = HuCTB006 0.6 mg/kg i.v. QW × 6W
[30] = repeated experiment, HuCTB006 0.2 mg/kg
[31] = repeated experiment, HuCTB006 0.6 mg/kg
[32] = repeated experiment, HuCTB006 1 mg/kg
[33] = repeated experiment, HuCTB006 10 mg/kg

For “HuCTB006: Monospecific humanized chimeric monoclonal antibody directed to TRAIL-R2 receptor; heavy chain SEQ ID NO: 14, light chain SEQ ID NO: 12”, the “cross-reaction with coated antigen” value [1] was “no cross-reaction”, the “cross-reaction with coated antigen” value [2] was “no cross-reaction” and the “In vitro cytotoxic sensitivity of CTB006” value [3] was “Non-responder”. The “In vitro cytotoxic sensitivity of CTB006” value [4] was “Non-responder”, the “In vitro cytotoxic sensitivity of CTB006” value [5] was “Non-responder” and the “In vitro cytotoxic sensitivity of CTB006” value [6] was “Non-responder”. The “In vitro cytotoxic sensitivity of CTB006” value [7] was “Non-responder”, the “In vitro cytotoxic sensitivity of CTB006” value [8] was “Non-responder” and the “In vitro cytotoxic sensitivity of CTB006” value [9] was “Non-responder”. For the same substance, the “In vitro cytotoxic sensitivity of CTB006” value [10] was “Non-responder”, the “T/C % (Calculated using tumor volume)” value [11, 13] was 90.16% and the “Time of tumor volume changed significantly” value [11, 13] was 7. The “Tumor Volume Mean ± SEM” value [11, 13] was 1.76 ± 0.18 cm^3, the “Tumor weight Mean ± SEM” value [11, 13] was 1.29 ± 0.18 g and the “TGI (Calculated using tumor volume)” value [11, 14] was 6.61%. For the same substance, the “TGI (Calculated using tumor weight)” value [11, 14] was 11.99%, the “TGI (Calculated using tumor volume)” value [11, 15] was 6.61% ^1 and the “TGI (Calculated using tumor weight)” value [11, 15] was 11.99%. The “T/C % (Calculated using tumor volume)” value [11, 16] was 81.49%, the “Time of tumor volume changed significantly” value [11, 16] was 7 and the “Tumor Volume Mean ± SEM” value [11, 16] was 1.54 ± 0.18 cm^3. For the same substance, the “Tumor weight Mean ± SEM” value [11, 16] was 1.16 ± 0.13 g, the “TGI (Calculated using tumor volume)” value [11, 17] was 18.71% and the “TGI (Calculated using tumor weight)” value [11, 17] was 21.13%. The “TGI (Calculated using tumor volume)” value [11, 18] was 18.71% ^ac, the “TGI (Calculated using tumor weight)” value [11, 18] was 21.13% and the “T/C % (Calculated using tumor volume)” value [11, 19] was 49.54%. The “Time of tumor volume changed significantly” value [11, 19] was 11, the “Tumor Volume Mean ± SEM” value [11, 19] was 0.96 ± 0.10 cm^3 and the “Tumor weight Mean ± SEM” value [11, 19] was 0.68 ± 0.08 g. For the same substance, the “TGI (Calculated using tumor volume)” value [11, 20] was 49.42%, the “TGI (Calculated using tumor weight)” value [11, 20] was 53.48% and the “TGI (Calculated using tumor volume)” value [11, 21] was 49.42% ^abc. For the same substance, the “TGI (Calculated using tumor weight)” value [11, 21] was 53.48% ^a, the “T/C % (Calculated using tumor volume)” value ([11]; HuCTB006 2 mg/kg i.v. QW × 4W) was 42.17% and the “Time of tumor volume changed significantly” value ([11]; HuCTB006 2 mg/kg i.v. QW × 4W) was 14. The “Tumor Volume Mean ± SEM” value ([11]; HuCTB006 2 mg/kg i.v. QW × 4W) was 0.80 ± 0.11 cm^3, the “Tumor weight Mean ± SEM” value ([11]; HuCTB006 2 mg/kg i.v. QW × 4W) was 0.53 ± 0.08 g and the “TGI (Calculated using tumor volume)” value [11, 22] was 57.34%. For the same substance, the “TGI (Calculated using tumor weight)” value [11, 22] was 63.81%, the “TGI (Calculated using tumor volume)” value [11, 23] was 57.34% ^abc and the “TGI (Calculated using tumor weight)” value [11, 23] was 63.81% ^a. For the same substance, the “TGI (Calculated using tumor volume)” value [11, 24] was 36.21%, the “TGI (Calculated using tumor weight)” value [11, 24] was 39.94% and the “TGI (Calculated using tumor volume)” value [11, 25] was 54.98%. The “TGI (Calculated using tumor weight)” value [11, 25] was 57.56%, the “TGI (Calculated using tumor volume)” value [11, 26] was 53.73% and the “TGI (Calculated using tumor weight)” value [11, 26] was 49.85%. The “TGI (Calculated using tumor volume)” value [11, 27] was 53.77%, the “TGI (Calculated using tumor weight)” value [11, 27] was 53.75% and the “T/C % (Calculated using tumor volumes)” value [12, 28] was 52.01%. For the same substance, the “Time of tumor volume changed significantly” value [12, 28] was 13 days after first treatment, the “Tumor Volume Mean ± SEM” value [12, 28] was 1.76 ± 0.15 cm^3 and the “Tumor weight Mean ± SEM” value [12, 28] was 0.79 ± 0.07 g. For the same substance, the “T/C % (Calculated using tumor volumes)” value [12, 29] was 38.43%, the “Tumor Volume Mean ± SEM” value [12, 29] was 1.27 ± 0.43 cm^3 and the “Tumor weight Mean ± SEM” value [12, 29] was 0.54 ± 0.21 g. For the same substance, the “T/C % (Calculated using tumor volumes)” value ([12]; HuCTB006 1 mg/kg i.v. QW × 6W) was 24.02%, the “Tumor Volume Mean ± SEM” value ([12]; HuCTB006 1 mg/kg i.v. QW × 6W) was 0.88 ± 0.35 cm^3 and the “Tumor weight Mean ± SEM” value ([12]; HuCTB006 1 mg/kg i.v. QW × 6W) was 0.37 ± 0.19 g. The “T/C % (Calculated using tumor volumes)” value ([12]; HuCTB006 10 mg/kg i.v. QW × 6W) was 23.01%, the “Time of tumor volume changed significantly” value ([12]; HuCTB006 10 mg/kg i.v. QW × 6W) was 7^2 days after first treatment and the “Tumor Volume Mean ± SEM” value ([12]; HuCTB006 10 mg/kg i.v. QW × 6W) was 0.76 ± 0.22 cm^3. The “Tumor weight Mean ± SEM” value ([12]; HuCTB006 10 mg/kg i.v. QW × 6W) was 0.19 ± 0.08 g, the Tumor regression ([12]; first experiment) was “some animals of HuCTB006 groups showed tumor regression” and the Tumor regression ([12]; repeated experiment) was “some animals of HuCTB006 groups also showed tumor regression”. The “TGI calculated based on the tumor volume” value [12, 30] was 59.52%, the “TGI calculated based on the tumor weight” value [12, 30] was 72.38% and the “TGI calculated based on the tumor volume” value [12, 31] was 85.35%. The “TGI calculated based on the tumor weight” value [12, 31] was 91.39%, the “TGI calculated based on the tumor volume” value [12, 32] was 87.52% and the “TGI calculated based on the tumor weight” value [12, 32] was 92.02%. For the same substance, the “TGI calculated based on the tumor volume” value [12, 33] was 58.99%, the “TGI calculated based on the tumor weight” value [12, 33] was 71.93% and the Bodyweights of mice ([12]; treatment groups over the time) was “slow increase over the time”.
